Experimental data as given in patent EP0025288A1, “Derivatives of monic acid, processes for their preparation, compositions containing them and their preparation” (priority 1979, dated 1981).

Assays:
Format in all cases: cell-based
[1] = tested on: E coli NCTC 10418; assay: MIC, human bacteria, serial dilution in nutrient agar; settings: nutrient agar containing 5% 'chocolated' horse blood
[2] = tested on: E coli ESS; assay: as above; settings: nutrient agar containing 5% 'chocolated' horse blood
[3] = tested on: P mirabilis 889; assay: as above; settings: nutrient agar containing 5% 'chocolated' horse blood
[4] = tested on: K aerogenes A; assay: as above; settings: nutrient agar containing 5% 'chocolated' horse blood
[5] = tested on: Ps aeruginosa 10662; assay: as above; settings: nutrient agar containing 5% 'chocolated' horse blood
[6] = tested on: Pasteurella multocida 1633; assay: as above; settings: nutrient agar containing 5% 'chocolated' horse blood
[7] = tested on: Haemophilus influenzae Q1; assay: as above; settings: nutrient agar containing 5% 'chocolated' horse blood
[8] = tested on: Haemophilus influenzae Wy21; assay: as above; settings: nutrient agar containing 5% 'chocolated' horse blood
[9] = tested on: Neisseria flavescens 8263; assay: as above; settings: nutrient agar containing 5% 'chocolated' horse blood
[10] = tested on: Bacillus subtilis 6633; assay: as above; settings: nutrient agar containing 5% 'chocolated' horse blood
[11] = tested on: Corynebacterium zerosis 9755; assay: as above; settings: nutrient agar containing 5% 'chocolated' horse blood
[12] = tested on: Sercina lutea 8340; assay: as above; settings: nutrient agar containing 5% 'chocolated' horse blood
[13] = tested on: Staph aureus Oxford; assay: as above; settings: nutrient agar containing 5% 'chocolated' horse blood
[14] = tested on: Staph aureus Russell; assay: as above; settings: nutrient agar containing 5% 'chocolated' horse blood
[15] = tested on: Staph aureus W2827; assay: as above; settings: nutrient agar containing 5% 'chocolated' horse blood
[16] = tested on: Strep faecalis I; assay: as above; settings: nutrient agar containing 5% 'chocolated' horse blood
[17] = tested on: Strep pyogenes A 64/848; assay: as above; settings: nutrient agar containing 5% 'chocolated' horse blood
[18] = tested on: Strep pyogenes B 2788; assay: as above; settings: nutrient agar containing 5% 'chocolated' horse blood
[19] = tested on: Strep pyogenes C 2761; assay: as above; settings: nutrient agar containing 5% 'chocolated' horse blood
[20] = tested on: Strep pneumoniae CN33; assay: as above; settings: nutrient agar containing 5% 'chocolated' horse blood
[21] = tested on: E coli NCTC 10418; assay: MIC, veterinary bacteria; settings: veterinary bacteria (Table 2)
[22] = tested on: E coli E1; assay: MIC, veterinary bacteria; settings: veterinary bacteria (Table 2)
[23] = tested on: S dublin S7; assay: MIC, veterinary bacteria; settings: veterinary bacteria (Table 2)
[24] = tested on: S typhimurium S18; assay: MIC, veterinary bacteria; settings: veterinary bacteria (Table 2)
[25] = tested on: Bord bronchiseptica BO8; assay: MIC, veterinary bacteria; settings: veterinary bacteria (Table 2)
[26] = tested on: Bord bronchisptica BO9; assay: MIC, veterinary bacteria; settings: veterinary bacteria (Table 2)
[27] = tested on: Past multocida PA1; assay: MIC, veterinary bacteria; settings: veterinary bacteria (Table 2)
[28] = tested on: Past multocida PA2; assay: MIC, veterinary bacteria; settings: veterinary bacteria (Table 2)
[29] = tested on: Past Haemolytica PA5; assay: MIC, veterinary bacteria; settings: veterinary bacteria (Table 2)
[30] = tested on: Erysipelothrix rhusiopathiae NCTC 8163; assay: MIC, veterinary bacteria; settings: veterinary bacteria (Table 2)
[31] = tested on: Corynebacterium pyogenes CY1; assay: MIC, veterinary bacteria; settings: veterinary bacteria (Table 2)
[32] = tested on: Staph aureus B4 (pen resis); assay: MIC, veterinary bacteria; settings: veterinary bacteria (Table 2)
[33] = tested on: Staph aureus 152 (pen sens); assay: MIC, veterinary bacteria; settings: veterinary bacteria (Table 2)
[34] = tested on: Staph aureus Oxford; assay: MIC, veterinary bacteria; settings: veterinary bacteria (Table 2)
[35] = tested on: Strep suis (group D) SPS11; assay: MIC, veterinary bacteria; settings: veterinary bacteria (Table 2)
[36] = tested on: Strep uberis SPU1; assay: MIC, veterinary bacteria; settings: veterinary bacteria (Table 2)
[37] = tested on: Strep dysgalaciae SPD1; assay: MIC, veterinary bacteria; settings: veterinary bacteria (Table 2)
[38] = tested on: Strep agalactiae SPA1; assay: MIC, veterinary bacteria; settings: veterinary bacteria (Table 2)
[39] = tested on: M suipneumoniae Str 11; assay: MIC, anti-mycoplasmal, Friis' broth microtiter method
[40] = tested on: M suipneumoniae J2206/183b; assay: as above
[41] = tested on: M dispar H225; assay: as above
[42] = tested on: M dispar NCTC 10125; assay: as above
[43] = tested on: M pneumoniae 427a; assay: as above
[44] = tested on: M pneumoniae ATCC 15492; assay: as above
[45] = tested on: M fermentans MWKL4; assay: as above
[46] = tested on: M pulmonis JB; assay: as above
[47] = tested on: M pneumoniae 427a; assay: MIC, anti-mycoplasmal, serial dilution in Friis' agar
[48] = tested on: M pneumoniae ATCC 15492; assay: as above
[49] = tested on: M bovis ATCC 25025; assay: as above
[50] = tested on: M bovis NCTC 10131; assay: as above
[51] = tested on: M fermentans MWKL4; assay: as above
[52] = tested on: M pulmonis JB; assay: as above
[53] = tested on: M hyorhinis ATCC 23234; assay: as above
[54] = tested on: M hyosynoviae ATCC 25591; assay: as above
[55] = tested on: M arthritidis ATCC 14124; assay: as above
[56] = tested on: M gallisepticum S6; assay: as above
[57] = tested on: M synoviae ATCC 25204; assay: as above
[58] = tested on: M alkalescens NCTC 10135; assay: as above
[59] = tested on: M bovigenitalium ATCC 14173; assay: as above

8-Acetvloctyl Monate A [Example 3]
MIC [1]: 100 µm/ml
MIC [2]: 0.5 µm/ml
MIC [3]: >100 µm/ml
MIC [4]: >100 µm/ml
MIC [5]: >100 µm/ml
MIC [6]: 1.0 µm/ml
MIC [7]: 0.2 µm/ml
MIC [8]: 0.2 µm/ml
MIC [9]: 0.1 µm/ml
MIC [10]: 0.2 µm/ml
MIC [11]: 100 µm/ml
MIC [12]: >100 µm/ml
MIC [13]: 0.1 µm/ml
MIC [14]: 9.5 µm/ml
MIC [15]: 100 µm/ml
MIC [16]: 100 µm/ml
MIC [17]: 0.2 µm/ml
MIC [18]: 0.5 µm/ml
MIC [19]: 0.5 µm/ml
MIC [20]: 0.2 µm/ml
MIC [21]: >80 µg/mL
MIC [22]: >80 µg/mL
MIC [23]: >80 µg/mL
MIC [24]: >80 µg/mL
MIC [25]: 20 µg/mL
MIC [26]: 5 µg/mL
MIC [27]: 2.5 µg/mL
MIC [28]: 0.156 µg/mL
MIC [29]: 20 µg/mL
MIC [30]: 10 µg/mL
MIC [31]: >80 µg/mL
MIC [32]: 0.312 µg/mL
MIC [33]: 0.312 µg/mL
MIC [34]: 0.312 µg/mL
MIC [35]: 1.25 µg/mL
MIC [36]: 0.07 µg/mL
MIC [37]: 0.156 µg/mL
MIC [38]: 0.625 µg/mL
in vitro MIC, BROTH [39]: 0.039 µg/mL
in vitro MIC, BROTH [40]: 0.156 µg/mL
in vitro MIC, BROTH [41]: 0.039 µg/mL
in vitro MIC, BROTH [42]: <0.02 µg/mL
in vitro MIC, BROTH [43]: 0.312 µg/mL
in vitro MIC, BROTH [44]: 0.312 µg/mL
in vitro MIC, BROTH [45]: <0.02 µg/mL
in vitro MIC, BROTH [46]: <0.02 µg/mL
in vitro MIC, AGAR [47]: 1.25 µg/mL
in vitro MIC, AGAR [48]: 1.25 µg/mL
in vitro MIC, AGAR [49]: 0.039 µg/mL
in vitro MIC, AGAR [50]: ≤0.02 µg/mL
in vitro MIC, AGAR [51]: 0.039 µg/mL
in vitro MIC, AGAR [52]: 0.039 µg/mL
in vitro MIC, AGAR [53]: 0.625 µg/mL
in vitro MIC, AGAR [54]: 0.156 µg/mL
in vitro MIC, AGAR [55]: 2.5 µg/mL
in vitro MIC, AGAR [56]: 5.0 µg/mL
in vitro MIC, AGAR [57]: <0.02 µg/mL
in vitro MIC, AGAR [58]: 0.039 µg/mL
in vitro MIC, AGAR [59]: 0.078 µg/mL
